Measured values: patent US11020371B2, “Anti-norovirus composition and utilization thereof” (YAIZU SUISANKAGAKU INDUSTRY CO., LTD., priority 2015, dated 2021)

Key:
[1] = test system: Murine norovirus strain S7; assay: Test Example 1: antiviral activity against murine norovirus (virus inactivation, TCID50 on RAW 264.7 cells); assay type: cell-based; conditions: log(TCID50 untreated) - log(TCID50 treated); 60 min reaction; theaflavin purified product and tannic acid 1.5 mg/mL in 25% ethanol-added medium; products A and B stock solution
Source text: [Test Method] […] Murine norovirus strain S7 was obtained and used. (2) Cell A RAW 264.7 cell being a cell line derived from a murine macrophage (ATCC (American Type Culture Collection) TIB-71) was obtained and used. […] The theaflavin-containing purified extract (hereinafter referred to as “theaflavin purified product”) obtained in Production Example 2 was used as a test sample. Moreover, as a test sample for comparison, tannic acid having nonspecific protein binding ability and also reported as to effectiveness against a norovirus, and products A and B being the existing anti-virus products were used. […] The theaflavin purified product was dissolved in dimethyl sulfoxide to be 71.7 mg/mL, and the resultant material was used in the test described below. Tannic acid was dissolved in dimethyl sulfoxide to be 169.9 mg/mL, and the resultant material was used in the test described below. […] A RAW 264.7 cell was monolayer cultured in a well of a 96-well plate, and washed twice with PBS (Phosphate Buffered Saline), and 200 μL of cell maintenance medium (2% fetal bovine serum-containing Dulbecco's Modified Eagle Medium (DMEM)) was added, and the resultant material was used in the test described below. (6) Anti-Virus Test For each test sample, a concentration was adjusted as described below, and the resultant material was applied as a test solution. […]

[2] = test system: feline calicivirus; assay: Test Example 3: anti-virus activity against feline calicivirus No. 2 (concentration, with or without 25% ethanol; TCID50 on CRFK cells); assay type: cell-based; conditions: only 25% ethanol, no addition of theaflavin purified product; 60 min reaction
Protocol: A cytopathic effect (CPE) was observed and a 50% tissue culture infectious dose (TCID50) being an indicator of a virus infectivity titer was calculated by the Behrens-Karber method. Moreover, a virus test solution untreated with the test sample was prepared in the same procedure, and the cytopathic effect was also observed on a cell to which the virus test solution was inoculated to determine a 50% tissue culture infectious dose (log (TCID50 value)). A reduction value of the virus infectivity titer by the test sample was calculated according to the formula (1) described below.
Anti-virus activity of the test sample against feline calicivirus was examined in the same manner as in Test Example 2 except that “(4) Preparation of sample for anti-virus test” and “(6) Anti-virus test” were conducted as described below.
(4) Preparation of Sample for Anti-Virus Test
A theaflavin purified product was dissolved in dimethyl sulfoxide to be 0.717 mg/mL (low concentration), 7.17 mg/mL (medium concentration) and 71.7 mg/mL (high concentration), and the resultant material was used in the test described below.
Then, 5 μL of a feline calicivirus solution and 45 μL of the test solution were mixed, and reacted for 60 minutes.
To the reaction liquid, 450 μL of serum-free Eagle's MEM medium was added to stop the reaction. […]

Structure (SMILES)	Reduction value of virus infectivity titer Average [1]	Average reduction value of virus infectivity titer [2]
O=C(OC[C@H]1O[C@@H](OC(=O)c2cc(O)c(O)c(OC(=O)c3cc(O)c(O)c(O)c3)c2)[C@H](OC(=O)c2cc(O)c(O)c(OC(=O)c3cc(O)c(O)c(O)c3)c2)[C@@H](OC(=O)c2cc(O)c(O)c(OC(=O)c3cc(O)c(O)c(O)c3)c2)[C@@H]1OC(=O)c1cc(O)c(O)c(OC(=O)c2cc(O)c(O)c(O)c2)c1)c1cc(O)c(O)c(OC(=O)c2cc(O)c(O)c(O)c2)c1 [Tannic acid]	0.5	–
CCO [ethanol]	–	0.5
